# Measured values: PubChem BioAssay (NCI)
#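 Here, GI50 denotes the concentration required for 50% inhibition of growth. TGI is the concentration that stops growth completely.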
# Columns and labels:
# Assay in all cases: NCI anticancer screen, dose series, 384-well format
# 786-0 renal = test system: 786-0 renal
# A498 renal = test system: A498 renal
# A549 NSCLC = test system: A549 NSCLC
# ACHN renal = test system: ACHN renal
# BT-549 breast = test system: BT-549 breast
# CAKI-1 renal = test system: CAKI-1 renal
# CCRF-CEM leukemia = test system: CCRF-CEM leukemia
# COLO 205 colon = test system: COLO 205 colon
# DU-145 prostate = test system: DU-145 prostate
# EKVX NSCLC = test system: EKVX NSCLC
# HCC-2998 colon = test system: HCC-2998 colon
# HCT-116 colon = test system: HCT-116 colon
# HCT-15 colon = test system: HCT-15 colon
# HL-60(TB) leukemia = test system: HL-60(TB) leukemia
# HOP-62 NSCLC = test system: HOP-62 NSCLC
# HOP-92 NSCLC = test system: HOP-92 NSCLC
# HS 578T breast = test system: HS 578T breast
# HT29 colon = test system: HT29 colon
# IGROV1 ovarian = test system: IGROV1 ovarian
# K-562 leukemia = test system: K-562 leukemia
# KM12 colon = test system: KM12 colon
# LOX IMVI melanoma = test system: LOX IMVI melanoma
# M14 melanoma = test system: M14 melanoma
# MALME-3M melanoma = test system: MALME-3M melanoma
# MCF7 breast = test system: MCF7 breast
# MDA-MB-231 breast = test system: MDA-MB-231 breast
# MDA-MB-435 melanoma = test system: MDA-MB-435 melanoma
# MDA-MB-468 breast = test system: MDA-MB-468 breast
# MOLT-4 leukemia = test system: MOLT-4 leukemia
# NCI-H226 lung = test system: NCI-H226 lung
# NCI-H23 lung = test system: NCI-H23 lung
# NCI-H322M lung = test system: NCI-H322M lung
# NCI-H460 NSCLC = test system: NCI-H460 NSCLC
# NCI-H522 lung = test system: NCI-H522 lung
# NCI/ADR-RES ovarian = test system: NCI/ADR-RES ovarian
# OVCAR-3 ovarian = test system: OVCAR-3 ovarian
# OVCAR-4 ovarian = test system: OVCAR-4 ovarian
# OVCAR-5 ovarian = test system: OVCAR-5 ovarian
# OVCAR-8 ovarian = test system: OVCAR-8 ovarian
# PC-3 prostate = test system: PC-3 prostate
# RPMI-8226 leukemia = test system: RPMI-8226 leukemia
# RXF 393 renal = test system: RXF 393 renal
# SF-268 CNS = test system: SF-268 CNS
# SF-295 CNS = test system: SF-295 CNS
# SF-539 CNS = test system: SF-539 CNS
# SK-MEL-2 melanoma = test system: SK-MEL-2 melanoma
# SK-MEL-28 melanoma = test system: SK-MEL-28 melanoma
# SK-MEL-5 melanoma = test system: SK-MEL-5 melanoma
# SK-OV-3 ovarian = test system: SK-OV-3 ovarian
# SN12C renal = test system: SN12C renal
# SNB-19 CNS = test system: SNB-19 CNS
# SNB-75 CNS = test system: SNB-75 CNS
# SW-620 colon = test system: SW-620 colon
# T-47D breast = test system: T-47D breast
# TK-10 renal = test system: TK-10 renal
# U251 glioblastoma = test system: U251 glioblastoma
# UACC-257 melanoma = test system: UACC-257 melanoma
# UACC-62 melanoma = test system: UACC-62 melanoma
# UO-31 renal = test system: UO-31 renal
smiles,measurement,setting,value
CCn1nc(C2CCN(C(=O)CCO)CC2)nc1-c1cnc(N)c(-c2nnc(C(C)(C)C)o2)n1,GI50,786-0 renal,7.59 µM
same,TGI,786-0 renal,> 100 µM
same,GI50,A498 renal,18.1 µM
same,TGI,A498 renal,> 100 µM
same,GI50,A549 NSCLC,5.24 µM
same,TGI,A549 NSCLC,> 100 µM
same,GI50,ACHN renal,15.5 µM
same,TGI,ACHN renal,> 100 µM
same,GI50,BT-549 breast,6.24 µM
same,TGI,BT-549 breast,54.3 µM
same,GI50,CAKI-1 renal,4.7 µM
same,TGI,CAKI-1 renal,> 100 µM
same,GI50,CCRF-CEM leukemia,6.7 µM
same,TGI,CCRF-CEM leukemia,23.4 µM
same,GI50,COLO 205 colon,6.8 µM
same,TGI,COLO 205 colon,23.9 µM
same,GI50,DU-145 prostate,13.7 µM
same,TGI,DU-145 prostate,100 µM
same,GI50,EKVX NSCLC,3.08 µM
same,TGI,EKVX NSCLC,30 µM
same,GI50,HCC-2998 colon,7.79 µM
same,TGI,HCC-2998 colon,47 µM
same,GI50,HCT-116 colon,23.2 µM
same,TGI,HCT-116 colon,> 100 µM
same,GI50,HCT-15 colon,15.8 µM
same,TGI,HCT-15 colon,> 100 µM
same,GI50,HL-60(TB) leukemia,377 nM
same,TGI,HL-60(TB) leukemia,12.2 µM
same,GI50,HOP-62 NSCLC,42.7 µM
same,TGI,HOP-62 NSCLC,> 100 µM
same,GI50,HOP-92 NSCLC,3.35 µM
same,TGI,HOP-92 NSCLC,> 100 µM
same,GI50,HS 578T breast,6.89 µM
same,TGI,HS 578T breast,31.8 µM
same,GI50,HT29 colon,3.02 µM
same,TGI,HT29 colon,25.5 µM
same,GI50,IGROV1 ovarian,320 nM
same,TGI,IGROV1 ovarian,1810 nM
same,GI50,K-562 leukemia,17.3 µM
same,TGI,K-562 leukemia,44.7 µM
same,GI50,KM12 colon,13.3 µM
same,TGI,KM12 colon,32.3 µM
same,GI50,LOX IMVI melanoma,10.1 µM
same,TGI,LOX IMVI melanoma,23.8 µM
same,GI50,M14 melanoma,16 µM
same,TGI,M14 melanoma,> 100 µM
same,GI50,MALME-3M melanoma,7.64 µM
same,TGI,MALME-3M melanoma,59.7 µM
same,GI50,MCF7 breast,200 nM
same,TGI,MCF7 breast,> 100 µM
same,GI50,MDA-MB-231 breast,80.9 µM
same,TGI,MDA-MB-231 breast,> 100 µM
same,GI50,MDA-MB-435 melanoma,11.3 µM
same,TGI,MDA-MB-435 melanoma,> 100 µM
same,GI50,MDA-MB-468 breast,2800 nM
same,TGI,MDA-MB-468 breast,17.1 µM
same,GI50,MOLT-4 leukemia,1110 nM
same,TGI,MOLT-4 leukemia,8.87 µM
same,GI50,NCI-H226 lung,24.6 µM
same,TGI,NCI-H226 lung,> 100 µM
same,GI50,NCI-H23 lung,16.7 µM
same,TGI,NCI-H23 lung,73.7 µM
same,GI50,NCI-H322M lung,5 µM
same,TGI,NCI-H322M lung,> 100 µM
same,GI50,NCI-H460 NSCLC,1190 nM
same,TGI,NCI-H460 NSCLC,> 100 µM
same,GI50,NCI-H522 lung,15.1 µM
same,TGI,NCI-H522 lung,38.6 µM
same,GI50,NCI/ADR-RES ovarian,19.4 µM
same,TGI,NCI/ADR-RES ovarian,84.1 µM
same,GI50,OVCAR-3 ovarian,7 µM
same,TGI,OVCAR-3 ovarian,22.1 µM
same,GI50,OVCAR-4 ovarian,32.9 µM
same,TGI,OVCAR-4 ovarian,> 100 µM
same,GI50,OVCAR-5 ovarian,10.7 µM
same,TGI,OVCAR-5 ovarian,> 100 µM
same,GI50,OVCAR-8 ovarian,29.8 µM
same,TGI,OVCAR-8 ovarian,> 100 µM
same,GI50,PC-3 prostate,3.65 µM
same,TGI,PC-3 prostate,> 100 µM
same,GI50,RPMI-8226 leukemia,16.5 µM
same,TGI,RPMI-8226 leukemia,30.9 µM
same,GI50,RXF 393 renal,2420 nM
same,TGI,RXF 393 renal,15.7 µM
same,GI50,SF-268 CNS,24.4 µM
same,TGI,SF-268 CNS,> 100 µM
same,GI50,SF-295 CNS,993 nM
same,TGI,SF-295 CNS,> 100 µM
same,GI50,SF-539 CNS,16.6 µM
same,TGI,SF-539 CNS,> 100 µM
same,GI50,SK-MEL-2 melanoma,17.3 µM
same,TGI,SK-MEL-2 melanoma,> 100 µM
same,GI50,SK-MEL-28 melanoma,5.59 µM
same,TGI,SK-MEL-28 melanoma,> 100 µM
same,GI50,SK-MEL-5 melanoma,8.62 µM
same,TGI,SK-MEL-5 melanoma,36.9 µM
same,GI50,SK-OV-3 ovarian,599 nM
same,TGI,SK-OV-3 ovarian,14.8 µM
same,GI50,SN12C renal,5.27 µM
same,TGI,SN12C renal,> 100 µM
same,GI50,SNB-19 CNS,35.2 µM
same,TGI,SNB-19 CNS,> 100 µM
same,GI50,SNB-75 CNS,1130 nM
same,TGI,SNB-75 CNS,13.2 µM
same,GI50,SW-620 colon,34.4 µM
same,TGI,SW-620 colon,> 100 µM
same,GI50,T-47D breast,170 nM
same,TGI,T-47D breast,832 nM
same,GI50,TK-10 renal,2710 nM
same,TGI,TK-10 renal,76.4 µM
same,GI50,U251 glioblastoma,41.7 µM
same,TGI,U251 glioblastoma,> 100 µM
same,GI50,UACC-257 melanoma,22.2 µM
same,TGI,UACC-257 melanoma,> 100 µM
same,GI50,UACC-62 melanoma,6.81 µM
same,TGI,UACC-62 melanoma,> 100 µM
same,GI50,UO-31 renal,4.31 µM
same,TGI,UO-31 renal,77.2 µM
